Here are results for two molecules from patent US8097709B2, “Macrolactam compounds” (Novobiotic Pharmaceuticals, Inc., priority 2007, dated 2012).

≈ marks a conversion by molar mass, not a printed value. A value given as a limit tells only on which side of the number the result lay.

The subject of data set [1] is B. subtilis 1A1. The data set can be described thus: Growth inhibition on solid agar (5 μl spot on bacterial lawn). The class given is cell-based. The following applies: minimal concentration giving observable zone of no growth, MHB agar.
A further data set has as its system B. anthracis Sterne. The data set is classed as cell-based. The following applies: minimal concentration giving observable zone of no growth, MHB agar.
In a further data set the test system is MRSA NRS1. The data set can be described thus: Growth inhibition on solid agar (5 μl spot on bacterial lawn). The class given is cell-based, Staphylococcus aureus. The following applies: minimal concentration giving observable zone of no growth, MHB agar.
Data set [2] has as its system MRSA NRS108. The description is as above. The class given is cell-based, Staphylococcus aureus. The following applies: minimal concentration giving observable zone of no growth, MHB agar.
Data set [3] concerns E. faecalis ATCC 51575 (VRE). Described as above. The class given is cell-based. The following applies: minimal concentration giving observable zone of no growth, MHB agar.
For data set [4], the system named is E. faecalis ATCC 51299 (VRE). The description is as above. To be noted: minimal concentration giving observable zone of no growth, MHB agar. The class given is cell-based.
A further data set relates to E. faecalis BM4147 (VRE). The data set is described as above. The data set is classed as cell-based. The following applies: minimal concentration giving observable zone of no growth, MHB agar.
Data set [5] has as its system NIH3T3 mouse embryonic fibroblasts. Briefly: Mammalian cytotoxicity assay (CellTiter 96 AQueous One Solution). The class given is cell-based. The following applies: NIH3T3 cells, 24 hr exposure; concentration with 50% of control signal. The method, then:
Mammalian cytotoxicity assays were performed using NIH3T3 mouse embryonic fibroblasts (ATCC CRL-1658), and cytotoxicity was measured using the CellTiter 96® AQueous One Solution Cell Proliferation Assay (Promega, Madison, Wis., Cat: G3582), according to the manufacturer's recommendations.
A control of DMSO was also included (wells in column A01, and A12).
An exponentially growing population of NIH/3T3 mouse embryonic fibroblast cells was trypsinized into single cell suspension and seeded at 3000 cells per 100 μl in all wells, except column 11 and 12 of a sterile 96-well flat bottom plate. […]
The plate was visually inspected under a dissecting microscope, and the absorbance at 490 nm was read using a Spectramax Plus Spectrophotometer, with wells A12, and B12 reserved as blanks (FIG. 3). The signal of compound alone (well All) was verified not to contribute to the absorbance at this wavelength. Next, 20 μl of the CellTiter 96® AQueous One Solution Cell Proliferation Assay (Promega, Madison, Wis., Cat: G3582) was added to each well, and the plate was read after 3 hr of incubation. […]

The next data set concerns human red blood cells. The class given is cell-based. The procedure: The effect of NOVO3 on the hemolysis of human red blood cells was also tested. A total of 10 ml of expired packed red blood cells from the blood bank was gently added to 80 ml of PBS (Phosphate buffered saline), and pelleted at 1000 g for 5 minutes at 4° C. The upper phase and buffy layer (white blood cells) were removed. The cells are repeatedly washed by gentle mixing with PBS, and centrifugation until the upper phase is clear. In the last wash, 40 ml of 1×PBS with 0.05% BSA was added to half of the red blood cells while 40 ml of 1×PBS without BSA was added to the other half. The upper phase of the last wash was removed to leave a total volume of about 10 ml. The concentration of the red blood cells was measured by using the spectrophometer at 600 nm. […]
The compound NOVO3 is two-fold serially diluted (similar to that described above for mammalian NIH3T3 cytotoxicity assay) as 100× concentration in DMSO, ranging from 12.5 μg/ml to 3200 μg/ml. […] After thorough mixing, the absorbance at 450 nm was read using a Spectramax Plus Spectrophotometer, with wells A12, and B12 reserved […], using wells with only 1×PBS as blanks.
The absorbance at 450 nm measured the amount of hemoglobin released by the lysis of red blood cells (FIG. 4). […]

The test system of the next data set is MSSA 29213. The data set can be described thus: Minimal Inhibitory Concentration in broth. The following applies: Staphylococcus aureus. The data set is classed as cell-based.
Another data set concerns MSSA 33591. Briefly: Minimal Inhibitory Concentration in broth. The data set is classed as cell-based. To be noted: Staphylococcus aureus.
The subject of another data set is C. difficile 2001. The data set can be described thus: Minimal Inhibitory Concentration in broth. To be noted: Clostridioides difficile, 2001, C. difficile 2001. The data set is classed as cell-based.
In another data set the test system is C. difficile 196. Briefly: Minimal Inhibitory Concentration in broth. The class given is cell-based. The following applies: Clostridioides difficile, MHB + 0.05% BSA.
Data set [6] deals with B. subtilis 1A1. Briefly: Minimal Inhibitory Concentration in broth. To be noted: Bacillus subtilis, 1A1, B. subtilis 1A1.
Data set [7] relates to MRSA NRS108. The data set can be described thus: Minimal Inhibitory Concentration in broth. The following applies: Staphylococcus aureus.

In general, MIC refers to the lowest concentration that inhibits growth of the organism. For `CC1/C=C/C=C\C=C\CC(C)C(OC2OC(C)C(O)C(N)C2O)C\C=C/C=C/C=C\C(=O)NC1` (stereo not shown) [NOVO3], the “Growth Inhibition with 5 μl of NOVO3” value in the data set on B. subtilis 1A1 [1] came to 0.125 µg/mL; in the data set with B. anthracis Sterne, 1.25 µg/mL; in the data set with MRSA NRS1 it was 1.25 µg/mL; with MRSA NRS108 [2], 1.25 µg/mL; in data set [3] it was 5 µg/mL; in [4] it was 1.25 µg/mL. In the data set on E. faecalis BM4147 (VRE), the “Growth Inhibition with 5 μl of NOVO3” value amounted to 1.25 µg/mL. In addition, in data set [5], the LD50 was greater than 32 µg/mL. For the same molecule, the hemolysis result with human red blood cells was “no significant hemolysis”. The MIC in the data set on MSSA 29213 (MHB) was 8 µg/mL (≈ 16.9 µM); in the data set on MSSA 29213 (MHB + 0.05% BSA), 0.25 µg/mL; against MSSA 33591 (MHB), 8 µg/mL (≈ 16.9 µM); with MSSA 33591 (MHB + 0.05% BSA), 0.25 µg/mL; against C. difficile 2001 (MHB), 32 µg/mL (≈ 67.7 µM); with C. difficile 2001 (MHB + 0.05% BSA) it was 8 µg/mL. The MIC in the data set on C. difficile 196 was 8 µg/mL; against B. subtilis 1A1 [6] (MHB (Table 3)) it was 3 ± 1.3 µg/mL (≈ 6.35 µM); in the data set with B. subtilis 1A1 [6] (MHB (Table 4, serum study)) it was 3 ± 1.3 µg/mL (≈ 6.35 µM); in the data set on B. subtilis 1A1 [6] (MHB + 0.02% Tween 80), 0.25 µg/mL; in the data set with B. subtilis 1A1 [6] (MHB + 0.05% BSA) it was 0.166 ± 0.08 µg/mL; in the data set on B. subtilis 1A1 [6] (MHB + 10% Calf Bovine Serum), 0.144 µg/mL. For the same molecule, the MIC is 0.125 µg/mL in the data set with B. subtilis 1A1 [6] (MHB + 10% human serum); 0.125 µg/mL in the data set on B. subtilis 1A1 [6] (MHB + 10% mouse serum); 0.125 µg/mL in the data set with B. subtilis 1A1 [6] (MHB + 40% Calf Bovine Serum); 8 µg/mL (≈ 16.9 µM) in the data set with MRSA NRS108 [7] (MRSA NRS108, MHB (Table 3)); 4 to 8 µg/mL (≈ 8.46 to 16.9 µM) with MRSA NRS108 [7] (MRSA NRS108, MHB (Table 4B, serum study)); 0.25 to 0.5 µg/mL in the data set on MRSA NRS108 [7] (MRSA NRS108, MHB + 0.05% BSA). Moreover, the MIC with MRSA NRS108 [7] (MRSA NRS108, MHB + 10% Calf Bovine Serum) is 0.25 to 0.5 µg/mL; with MRSA NRS108 [7] (MRSA NRS108, MHB + 40% Calf Bovine Serum) it was 0.25 µg/mL; against MRSA NRS108 [7] (MRSA|NRS108, MRSA NRS108, GM (Dulbecco's Modified Eagle's medium with 10% bovine calf serum)) it was 0.25 µg/mL (≈ 0.529 µM).
As to Triton X100 [reference compound], the “absorbance at 450 nm (hemoglobin released)” value with human red blood cells is given as 0.41.
